# From ChEMBL document CHEMBL3351623, “Pim kinase inhibitors for the treatment of cancer and possibly more” (ACS Med Chem Lett, 2014)
# Assays:
# Assay type in all cases: functional, cell-based
# [1] = tested on: BaF3; test: Antiproliferative activity against PIM1-dependent mouse BAF3 cells
# [2] = Antiproliferative activity against human MM1S cells; details: MM1.S
# [3] = tested on: BaF3; test: Antiproliferative activity against IL3-dependent mouse BAF3 cells
IC50 [1] [nM],IC50 [3] [nM],Structure (SMILES),EC50 [2] [nM]
19.2,,Cn1ncc(NC(=O)c2nc(-c3c(F)cccc3F)sc2N)c1[C@]12CC[C@H](O1)[C@@H](N)CC2,
96.8,> 25000,"C[C@H]1O[C@@H](c2c(NC(=O)c3csc(-c4c(F)cccc4F)n3)cnn2C)C[C@@H](N)[C@]1(C)O (single isomer, unassigned)",6900
37.2,12200,"Cn1ncc(NC(=O)c2csc(-c3c(F)cc([C@H]4CCCO4)cc3F)n2)c1[C@@H]1CC[C@@H](N)[C@H](F)CO1 (single isomer, unassigned)",1700
